Laboratory results reported in PMC3135787 (Antiviral research, 2011).
Read-outs that look alike come from different tables or passages of the source.

Tests used:
[1] = tested on: primary human hepatocytes; details: primary human hepatocytes from three donors
[2] = 8-day MTS cytotoxicity assay, Huh7; type: cell-based, human; details: human
[3] = 8-day MTS cytotoxicity assay, HepG2; type: cell-based, human; details: human
[4] = 8-day MTS cytotoxicity assay, BxPC3; type: cell-based, human; details: human
[5] = 8-day MTS cytotoxicity assay, CEM; type: cell-based, human; details: human
[6] = tested on: mitochondrial COXII DNA (mtDNA); assay: Mitochondrial COXII DNA and ribosomal DNA by real time PCR, HepG2; type: cell-based, human; details: human
[7] = tested on: ribosomal DNA (rDNA); assay: as above; type: cell-based, human; details: human
[8] = tested on: mitochondrial COXII DNA (mtDNA); assay: Mitochondrial COXII DNA and ribosomal DNA by real time PCR, CEM; type: cell-based, human; details: human
[9] = tested on: ribosomal DNA (rDNA); assay: as above; type: cell-based, human; details: human
[10] = tested on: ET replicon with NS5B S96T/N142T; assay: microbe, parasite or virus in culture; type: cell-based, HCV
[11] = tested on: Clone A wild type replicon; assay: Cross resistance: Clone A wild type replicon, RT-PCR; type: cell-based, HCV; details: Hepatitis C virus, read-out: EC90 WT replicon
[12] = tested on: Clone A replicon with NS5B S282T; assay: microbe, parasite or virus in culture; type: cell-based, HCV
[13] = tested on: CEM cells; assay: Lactic acid production, CEM; details: 7 days, normalised to rDNA
[14] = tested on: HepG2 cells; assay: Lactic acid production, HepG2; details: 7 days, normalised to rDNA
[15] = tested on: primary human hepatocytes; assay: Metabolism of [3H]-PSI-353661 in primary human hepatocytes; type: in vitro ADME; details: for time to maximum intracellular concentration: continuous exposure to 5 μM [3H]-PSI-353661
[16] = biological target: recombinant HCV NS5B genotype 1b (Con1 strain), wild-type (Hepatitis C virus genotype 1b, UniProt Q9WMX2); assay: NS5B polymerase assay, genotype 1b wild-type; type: biochemical
[17] = biological target: recombinant NS5B genotype 2a (JFH-1 strain) (Hepatitis C virus genotype 2a, UniProt Q99IB8); assay: NS5B polymerase assay, genotype 2a; type: biochemical, HCV
[18] = biological target: recombinant NS5B genotype 3a (Hepatitis C virus genotype 3a, UniProt Q81258); assay: NS5B polymerase assay, genotype 3a; type: biochemical, HCV
[19] = biological target: recombinant NS5B genotype 4a (Hepatitis C virus genotype 4a, UniProt O39929); assay: NS5B polymerase assay, genotype 4a; type: biochemical, HCV
[20] = biological target: S282T genotype 1b NS5B (Con1 strain) (Hepatitis C virus genotype 1b, UniProt Q9WMX2, S2701T); assay: biochemical; parameters: species or system HCV
[21] = tested on: S282T genotype 1b NS5B (Con1 strain); assay: biochemical; parameters: species or system HCV; details: genotype 1b RdRp, 5 μM NTPs
[22] = tested on: Human nucleoside diphosphate kinase (NDPK); assay: NDPK-mediated phosphorylation, coupled assay; type: biochemical
[23] = biological target: rabbit muscle PK (Oryctolagus cuniculus, UniProt P11974); assay: Phosphorylation by pyruvate kinase; type: biochemical; details: kinetic parameters unable to be determined (Km too high)
[24] = biological target: 3-phosphoglycerate kinase (3-PGK) (Saccharomyces cerevisiae, UniProt P00560); assay: Phosphorylation by 3-phosphoglycerate kinase; type: biochemical, bakers yeast; details: kinetic parameters unable to be determined (Km too high)
[25] = biological target: L-alanine dehydrogenase (Ala-DH) (Bacillus subtilis, UniProt Q08352)
[26] = tested on: primary human hepatocytes
[27] = Hepatitis C virus, read-out: EC90 Mutant replicon

3-phosphoglycerate kinase (3-PGK), sequence (P00560 whole entry): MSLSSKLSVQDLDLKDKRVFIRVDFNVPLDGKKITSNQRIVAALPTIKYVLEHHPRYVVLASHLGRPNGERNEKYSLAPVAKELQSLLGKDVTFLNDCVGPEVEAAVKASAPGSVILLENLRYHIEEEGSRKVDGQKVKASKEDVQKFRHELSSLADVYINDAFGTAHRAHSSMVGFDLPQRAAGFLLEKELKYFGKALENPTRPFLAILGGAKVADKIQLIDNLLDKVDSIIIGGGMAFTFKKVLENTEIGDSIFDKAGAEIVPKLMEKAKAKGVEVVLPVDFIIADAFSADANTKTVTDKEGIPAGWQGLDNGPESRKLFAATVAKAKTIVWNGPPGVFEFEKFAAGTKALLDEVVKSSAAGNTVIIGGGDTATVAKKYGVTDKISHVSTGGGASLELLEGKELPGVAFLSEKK
L-alanine dehydrogenase (Ala-DH), sequence (Q08352 whole entry): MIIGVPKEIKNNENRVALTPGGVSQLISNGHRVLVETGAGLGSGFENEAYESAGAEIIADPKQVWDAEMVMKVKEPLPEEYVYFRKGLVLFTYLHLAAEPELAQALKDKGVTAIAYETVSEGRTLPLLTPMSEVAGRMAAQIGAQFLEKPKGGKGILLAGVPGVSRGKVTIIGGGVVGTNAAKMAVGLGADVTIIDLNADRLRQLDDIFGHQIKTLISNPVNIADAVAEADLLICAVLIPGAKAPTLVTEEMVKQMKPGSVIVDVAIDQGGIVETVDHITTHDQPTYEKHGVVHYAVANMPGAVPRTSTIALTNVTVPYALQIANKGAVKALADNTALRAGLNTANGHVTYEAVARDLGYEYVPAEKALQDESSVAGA
rabbit muscle PK, sequence (P11974 whole entry): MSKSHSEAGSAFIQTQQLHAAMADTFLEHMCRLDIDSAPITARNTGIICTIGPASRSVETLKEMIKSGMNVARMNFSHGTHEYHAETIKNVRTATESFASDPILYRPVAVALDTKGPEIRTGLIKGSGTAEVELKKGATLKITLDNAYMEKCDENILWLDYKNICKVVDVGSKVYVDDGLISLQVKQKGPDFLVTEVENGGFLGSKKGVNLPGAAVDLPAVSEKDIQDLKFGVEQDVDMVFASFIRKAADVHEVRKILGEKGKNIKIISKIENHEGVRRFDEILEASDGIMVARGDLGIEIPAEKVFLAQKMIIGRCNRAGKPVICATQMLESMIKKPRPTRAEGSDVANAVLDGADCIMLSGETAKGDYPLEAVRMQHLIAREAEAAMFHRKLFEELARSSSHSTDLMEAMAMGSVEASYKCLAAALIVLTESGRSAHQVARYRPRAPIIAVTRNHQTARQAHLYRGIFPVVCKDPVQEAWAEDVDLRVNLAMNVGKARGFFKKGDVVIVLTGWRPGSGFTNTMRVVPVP

O=[N+]([O-])c1ccc(OP(=O)(O)Oc2ccc([N+](=O)[O-])cc2)cc1 [BNPP, bis(4-nitrophenyl)phosphate]
effect on formation of the triphosphate PSI-352666 from PSI-353661 [1]: inhibited the formation of PSI-352666 in hepatocytes from three different donors in a dose-dependent manner

COc1nc(N)nc2c1ncn2[C@@H]1O[C@H](COP(=O)(N[C@@H](C)C(=O)OCC(C)(C)C)Oc2cccc3ccccc23)[C@@H](O)[C@@]1(C)O (some centres unmarked) [INX-08189]
CC50 at 8 days [2]: 320 ± 30 nM | CC50 at 8 days [3]: 2230 ± 100 nM | CC50 at 8 days [4]: 2810 ± 1520 nM | CC50 at 8 days [5]: 15000 ± 2000 nM | CC90 at 14 days [6]: 970 ± 620 nM | CC90 at 14 days [7]: 750 ± 270 nM | CC90 at 14 days [8]: 16900 ± 1700 nM | CC90 at 14 days [9]: 16300 ± 4100 nM | EC90 [10, 27]: 5.9 ± 2.7 nM | EC90 fold change ([10]; S96T/N142T mutant EC90 normalised to wild-type): 1.1 | EC90 [11]: 18 ± 1 nM | EC90 [12, 27]: 110 ± 4 nM | EC90 fold change ([12]; S282T mutant EC90 normalised to wild-type): 6.1 | Lactic acid (Fold change from untreated cells) ([13]; 0.1 μM): 1.4 ± 0.35 | Lactic acid (Fold change from untreated cells) ([13]; 1.0 μM): 1.4 ± 0.69 | Lactic acid (Fold change from untreated cells) ([13]; 10 μM): 1.5 ± 0.50 | Lactic acid (Fold change from untreated cells) ([13]; 50 μM): Toxic. | Lactic acid (Fold change from untreated cells) ([14]; 0.1 μM): 1.1 ± 0.21 | Lactic acid (Fold change from untreated cells) ([14]; 1.0 μM): 3.1 ± 0.61 | Lactic acid (Fold change from untreated cells) ([14]; 10 μM): Toxic | Lactic acid (Fold change from untreated cells) ([14]; 50 μM): Toxic.

C[C@@]1(F)[C@H](O)[C@@H](COP(=O)(O)OP(=O)(O)OP(=O)(O)O)O[C@H]1n1cnc2c(=O)[nH]c(N)nc21 [PSI-352666, 2′-deoxy-2′-α-fluoro-2′-β-C-methylguanosine-5′-triphosphate]
intracellular concentration ([15]; after 4 hours of exposure to PSI-353661): > 50 µM | time to maximum intracellular concentration [15]: about 4 hours | IC50 ([16]; IC50, genotype 1b NS5B, 1 μM NTPs): 1000 ± 200 nM | IC50 ([16]; IC50, wild-type genotype 1b RdRp, 5 μM NTPs): 4000 ± 1100 nM | IC50 [17]: 4700 ± 600 nM | IC50 [18]: 1300 ± 500 nM | IC50 [19]: 4200 ± 800 nM | IC50 [20]: 9200 ± 1400 nM | fold difference in IC50, S282T mutant vs wild-type [21]: ~2 fold

C[C@@]1(F)[C@H](O)[C@@H](COP(=O)(O)OP(=O)(O)O)O[C@H]1n1cnc2c(=O)[nH]c(N)nc21 [PSI-353579, 2′-deoxy-2′-α-fluoro-2′-β-C –methylguanosine-5′-diphosphate]
time to maximum intracellular concentration [15]: 1 to 2 h | kcat (apparent) ([22]; 25 °C, PK contributed in the phosphorylation): 44.6 ± 4.9 s⁻¹ | Km ([22]; read-out: Km (apparent), 25 °C, PK contributed in the phosphorylation): 66.3 ± 2.2 µM | phosphorylation by PK [23]: Phosphorylation of PSI-353579 was also observed | phosphorylation by 3-PGK [24]: Phosphorylation of PSI-353579 was also observed

C[C@H](N)C(=O)O [alanine, L-alanine]
Vmax [25]: 0.0206 ± 0.0005 ΔA340/min

CCC[C@H](NC(=O)[C@@H]1[C@H]2CCC[C@H]2CN1C(=O)[C@@H](NC(=O)[C@@H](NC(=O)c1cnccn1)C1CCCCC1)C(C)(C)C)C(=O)C(=O)NC1CC1 [telaprevir]
effect on formation of the triphosphate PSI-352666 from PSI-353661 [26]: not inhibited by telaprevir in hepatocytes from two of the three donors
